Here are results for 67 compounds from PubChem BioAssay AID179 (DTP/NCI, 2004).

The EC50 is the concentration that produces a half-maximal response. As usually defined, the IC50 is the concentration needed to halve the response being measured.

The experiment concerns CEM cells HIV-1 protection, formazan growth assay. In words: NCI AIDS Antiviral Assay. The conditions noted are these: for IC50: measured here: growth of uninfected CEM cells. The essentials: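 Protection of CEM cells against HIV-1 was scored from cell growth (soluble formazan) across five concentrations, with parallel uninfected cells. Lack of protection may reflect toxicity.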

“And” between values parts separate entries of the source, which are not always exact repeats. Equal values may be shown once. The source made the active and inactive calls.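 The calls were made as follows: active = compounds giving half or more protection of infected cells from virus-caused growth loss, again on retest; inactive = the rest.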 Where a SMILES comes first, the peptide text is derived from it. The star is where a group is joined. Fmoc = O=C(OCC1c2ccccc2-c2ccccc21)*; Boc = CC(C)(C)OC(=O)*

As to `COc1ccc2c(c1)OC[C@@H]1c3cc(O)c4c(OCc5ccccc5)cccc4c3O[C@H]21`, the EC50 is > 100 µM and the 50% inhibitory concentration (IC50) turned out to be 67.6 µM.

For the compound `CCOC(C)C(/C=N/NC(N)=S)=NNC(N)=S` (stereo not drawn), the EC50 is > 20 µM and the IC50 stood at 1.86 µM.

On to `CCOC(=O)c1c(-c2ccc(OC)cc2)c(C#N)c(=S)n(C2OC(COC(C)=O)C(OC(C)=O)C(OC(C)=O)C2OC(C)=O)c1C` (stereo not drawn), for which the EC50 was > 200 µM; the IC50 was 42.7 µM and 33.9 µM.

On to `O=C(O)CCCCCCCCCCCCl`, for which the EC50 was > 200 µM and the IC50 was found to be 91.2 µM.

`O=c1cccc2n1C[C@H]1C[C@@H]2CN2CCCC[C@H]12`: the EC50 was > 200 µM and the IC50 was > 200 µM.

Regarding `CCN1C(=O)c2ccccc2C1(O)c1ccc(Cl)cc1` (stereo not drawn), the EC50 is > 200 µM and the IC50 worked out at 151 µM.

Consider `CC1C2=CC=C(O2)C(C)(C)C2=CC=C(O2)C(C)(C)C2=CC=C(O2)C(C)(C)C2=CC=C1O2`, for which the result was inactive.

As for `O=C(O)CC1OC(=O)C(Br)=C1O` (stereo not drawn), the EC50 is > 1050 µM and the IC50 was > 1050 µM.

For `CCCCCCc1cc2cc(C(=O)Nc3nc(C45CC6CC(CC(C6)C4)C5)cs3)c(=O)oc2cc1O`, the EC50 is > 100 µM and the concentration for half-maximal inhibition (IC50) was found to be 8.51 µM.

As for `OCC1OC(n2cnc3c2NC=NCC3O)C(Cl)C1O` (stereo not drawn), the EC50 was > 295 µM and the IC50 is > 295 µM.

`COc1ccc(-c2nc(SC)n(C3OC(COC(C)=O)C(OC(C)=O)C(OC(C)=O)C3OC(C)=O)c(=O)c2C#N)cc1` (stereo not drawn): the EC50 is > 200 µM; the IC50 was 41.7 µM and 46.8 µM.

As for `Cc1cc(N=C2C=C(Br)C(=O)C(Br)=C2)cc(CN(CC(=O)O)CC(=O)O)c1O`, the EC50 is > 45.7 µM and the IC50 is 0.501 µM.

For `c1ccc(CCC2=Nc3ccccc3CO2)cc1`, the EC50 is > 110 µM and the IC50 was > 110 µM.

In the case of `COc1ccc(C=NC23CC4CC(CC(C4)C2)C3)cc1`, the EC50 was > 95.5 µM and the IC50 is > 95.5 µM.

Regarding `Cc1ccnc2sc3ccccc3c(=O)c12`, the EC50 was > 200 µM and the IC50 was 37.2 µM.

Regarding `OCC1NCC(O)C(O)C1O` (stereo not drawn), the EC50 is > 200 µM and the IC50 was > 200 µM.

As for `Cn1ccc2[nH]c(=O)[nH]c(=S)c21`, the EC50 is > 200 µM and the IC50 is > 200 µM.

For the compound `C(/C=C/Nc1ccc(Oc2ccccc2)cc1)=Nc1ccc(Oc2ccccc2)cc1`, the EC50 is > 200 µM and the IC50 was 9.33 µM.

As for `CCN(CC)c1cc2c3c(c1)CCCN3CCC2`, the EC50 is > 100 µM and the IC50 stood at 95.5 µM.

With `O/N=C(\c1ccccc1)N1CCCCC1`, the result was inactive.

In the case of `CC1(C)[C@@H]2C[C@H]1C(Cc1ccc(C[C@H]3c4cc(-c5ccccn5)ncc4[C@H]4C[C@@H]3C4(C)C)cc1)c1cc(-c3ccccn3)ncc12` (stereo partly drawn), the EC50 was > 20 µM and the IC50 was 0.813 µM.

With `N#C/C(=C\c1ccccc1Br)C(=O)c1ccccc1`, the EC50 was > 32.4 µM and the concentration for half-maximal inhibition (IC50) is > 32.4 µM.

On to `O=c1[nH]c2ccc(C(F)(F)F)cc2nc1Cc1ccccc1`, for which the EC50 was > 200 µM and the IC50 was determined as 74.1 µM.

For the compound `COC(=O)[C@@H](NC1(c2ccccc2)c2ccccc2-c2ccccc21)[C@H](OC(=O)[C@H]1CCCN1S(=O)(=O)c1ccccc1)C(=O)OC`, the EC50 was > 200 µM and the IC50 is 9.33 µM.

In the case of `N=c1n(CC(=O)NC23CC4CC(CC(C4)C2)C3)c2ccccc2n1Cc1ccc(Cl)cc1`, the EC50 is > 53.7 µM and the IC50 turned out to be 4.79 µM.

For `CC(C)CC1=C(C(=O)c2ccoc2)CC(C)C1` (stereo not drawn), the EC50 is > 200 µM and the concentration for half-maximal inhibition (IC50) was > 200 µM.

Take `Cc1ccc(C(=O)Nc2ccc(CP(=O)(O)O)cc2)cc1NC(=O)c1cccc(NC(=O)Nc2cccc(C(=O)Nc3cc(C(=O)Nc4ccc(CP(=O)(O)O)cc4)ccc3C)c2)c1`: the EC50 is 16.6 µM and the concentration for half-maximal inhibition (IC50) came to 50.1 µM.

Consider `Cc1cc(=O)n(-c2ccccc2)c(=O)n1-c1nc2ccccc2[nH]1`, for which the EC50 is > 112 µM and the IC50 came out at 64.6 µM.

Take `CCC(=O)c1ccc2[nH]c3c(C)c4c(=O)cc(C)[nH]c4c(C)c3c2c1`: the EC50 was > 100 µM and the IC50 is > 100 µM.

Take `Nc1ccc(/C=C\C2(CCl)OCCO2)cc1`: the EC50 is > 100 µM and the 50% inhibitory concentration (IC50) was > 100 µM.

As for `S=C(NCCc1ccccc1)N1CCC(CCCC2CCN(C(=S)NCCc3ccccc3)CC2)CC1`, the EC50 was > 200 µM and the IC50 is > 200 µM.

With `CC(C)CCCC(C)C1CCC2C3CC[C@H]4C[C@@H](CCC=C(c5cc(Cl)c(OCc6cccc(B7OC(C)(C)C(C)(C)O7)c6)c(C(=O)OCc6cccc(B7OC(C)(C)C(C)(C)O7)c6)c5)c5cc(Cl)c(OCc6cccc(B7OC(C)(C)C(C)(C)O7)c6)c(C(=O)OCc6cccc(B7OC(C)(C)C(C)(C)O7)c6)c5)CC[C@]4(C)C3CC[C@]12C` (stereo partly drawn), the EC50 is > 50.1 µM and the IC50 was > 50.1 µM.

Consider `CC(=O)NC(C(=O)N1CCCC1C(=O)O)C(C)C` (stereo not drawn) (Ac-Val-Pro-OH; configuration not given here), for which the EC50 is > 200 µM and the IC50 was > 200 µM.

For `CCCNC(=O)N(CCN(C)C)S(=O)(=O)c1ccc(Cl)cc1`, the result was inactive.

Regarding `Brc1ccc(-c2cc(-c3ccc4c(c3)OCO4)c(-c3cccs3)n2Cc2ccccc2)cc1`, the EC50 is > 200 µM and the IC50 was > 200 µM.

As to `Cc1cc(Br)ccc1N=NC1C(=O)ON=C1c1ccccc1` (stereo not drawn), the result was inactive.

For `NC(N)=NCCCS(=O)(=O)Nc1ccc(Nc2c3ccccc3nc3cc([N+](=O)[O-])ccc23)cc1`, the outcome was inactive.

For the compound `C=C(C)C(CC=C(C)C)CC12CC(CC=C(C)C)C(C)(C)C(CC=C(C)C)(C(=O)C(Cc3ccc(O)c(O)c3)=C1O)C2=O` (stereo not drawn), the EC50 was > 200 µM and the IC50 came to 158 µM.

As to `C(=NCCSSCCN=Cc1ccccc1)c1ccccc1`, the EC50 was > 200 µM and the IC50 turned out to be 38.9 µM.

In the case of `CN(C)N1CCOC1=O`, the EC50 was > 200 µM and the IC50 was > 200 µM.

Take `CC(C)N=c1cc2n(-c3ccc(Cl)cc3)c3ccccc3nc-2cc1Nc1ccc(Cl)cc1`: the EC50 was > 100 µM and the IC50 worked out at 9.12 µM.

On to `CCOC(=O)c1ccccc1NC(=O)CN(CC)CC`, for which the EC50 is > 200 µM and the IC50 is > 200 µM.

For `CCNc1nc2c(ncn2C2CC(O)C(COP(=O)(O)O)O2)c(=O)[nH]1` (stereo not drawn), the EC50 is > 100 µM and the IC50 was > 100 µM.

Turning to `CCc1cccc(C)c1NC(=O)NS(=O)(=O)c1ccc(C)cc1`, the EC50 was > 759 µM and the IC50 is > 759 µM.

Consider `O=C(O)c1cccc(S(=O)(=O)c2ccccc2)c1`, for which the EC50 was > 200 µM and the IC50 was > 200 µM.

In the case of `Cn1c2nc(=Nc3ccc(Cl)cc3)n3ccc4ccccc4c3c2c(=O)n1-c1ccccc1`, the EC50 is > 200 µM and the IC50 was 158 µM.

On to `O=C1CSC(=Nc2ccccc2)N1c1ccc(-n2c(-c3ccc(N=Cc4ccc(Cl)cc4)cc3)nc3ccccc3c2=O)cc1`, for which the EC50 is > 56.2 µM and the IC50 is > 56.2 µM.

With `CCOC(=O)/C(C#N)=C/c1[nH]c(C(=O)OCc2ccccc2)c(C)c1C`, the outcome was inactive.

In the case of `CC1(N)COP(=O)(NCc2ccccc2)OC1` (stereo not drawn), the EC50 is > 676 µM and the IC50 was 589 µM.

As for `Cc1nc(-n2nc(-c3ccccc3)cc2-c2ccccc2)sc1C(=O)/C=C/c1ccc(Cl)c(Cl)c1`, the EC50 was > 26.3 µM and the IC50 is > 26.3 µM.

On to `CC1(C)C2CCC(CN=C(N)CSS(=O)(=O)O)C1C2` (stereo not drawn), for which the EC50 is > 200 µM and the IC50 was 33.1 µM.

Turning to `Nc1ccc(C(=O)N/C(=C\c2ccc3c(c2)OCO3)c2nc3[nH]c(=S)[nH]c(=O)c3[nH]2)cc1`, the result was inactive.

For the compound `N=CCCN(CCC=N)c1ccc(/C=C2\CN(NC(=O)c3ccc(Cl)cc3)C(c3ccccc3)=N2)cc1`, the EC50 was > 70.8 µM and the IC50 was > 70.8 µM.

As for `COc1cc(C[C@H]2c3cc(OC)c(OC)cc3CCN2C)c(Oc2cc3c(cc2OC)-c2c(OC)c(OC)cc4c2[C@H](C3)N(C)CC4)cc1OC`, the outcome was inactive.

In the case of `CC(SSC(C)N1C(=O)c2ccccc2C1=O)N1C(=O)c2ccccc2C1=O` (stereo not drawn), the EC50 is > 100 µM and the IC50 was > 100 µM.

For the compound `CN(O)C(=O)c1ccccc1`, the EC50 is > 1660 µM and the IC50 was determined as 1380 µM.

`COc1cccc(/C=C2\C(=O)N(C(=O)Cc3ccccc3)N=C2C)c1`: the EC50 is > 15.5 µM and the IC50 was > 15.5 µM.

Take `O=C(O)CCC(=O)Nc1ccccc1`: the EC50 was > 200 µM and the IC50 is > 200 µM.

As to `COc1cc2oc(-c3ccc(O)cc3)c(OC3OC(C)C(O)C(O)C3O)c(=O)c2c(O)c1OC` (stereo not drawn), the result was inactive.

In the case of `O=C1CC(=O)NC(=NN2C(=O)/C(=C/c3ccc(Cl)cc3)N=C2c2ccccc2)N1`, the EC50 was > 200 µM and the IC50 amounted to 32.4 µM.

Regarding `COC(OC)(c1ccccc1)C(Br)Br`, the outcome was inactive.

In the case of `CS(=O)(=O)c1cc([N+](=O)[O-])c(C(N)=O)cc1N(CCCl)CCCl`, the EC50 was > 200 µM and the concentration for half-maximal inhibition (IC50) was > 200 µM.

As to `CC(=O)O[C@H]1CC[C@@]2(C)C(CC[C@]3(C)C2CC[C@]2(C)Oc4c(C)cc(O)cc4C[C@@H]23)C1(C)C` (stereo partly drawn), the outcome was inactive.

For `CC(=O)N1C(c2[nH]c3ccccc3c2Cc2ccccc2)CCN1c1ccccc1` (stereo not drawn), the EC50 is > 200 µM and the IC50 was found to be 102 µM.

For `CC(C)(C)OC(=O)NCCCCC(NC(=O)OCC1c2ccccc2-c2ccccc21)C(=O)N1CCCC1C(=O)NCC(N)=O` (stereo not drawn) (Fmoc-Lys(Boc)-Pro-Gly-NH2; configuration not given here), the EC50 is 69.2 µM and the IC50 amounted to 91.2 µM.

In the case of `CCOc1ccc(Nc2nc(C)c(C(=O)CC(=O)C(=O)Nc3ccc(Cl)c(C(F)(F)F)c3)s2)cc1`, the EC50 was > 200 µM and the IC50 is > 200 µM.

With `CC(NNC(=S)N1CCN(c2ccccn2)CC1)c1cccc[n+]1[O-]` (stereo not drawn), the EC50 is > 67.6 µM and the IC50 is 0.195 µM.
